Measured values as given in ChEMBL document CHEMBL3286232, “The enone motif of (+)-grandifloracin is not essential for 'anti-austerity' antiproliferative activity” (Bioorg Med Chem Lett, 2014).

Experiments:
[1] = test system: HT-29; test: Anti-austerity antiproliferative activity against nutrient-deprived human HT-29 cells after 72 hrs in presence of 0.5% serum; assay type: functional, cell-based; conditions: HT-29, 72 h
[2] = Anti-austerity antiproliferative activity against nutrient-deprived human PANC1 cells after 72 hrs in presence of 0.5% serum; assay type: functional, cell-based; conditions: PANC-1, 72 h
[3] = Anti-austerity antiproliferative activity against human PANC1 cells after 72 hrs in presence of 10 % serum; assay type: cell-based; conditions: PANC-1, 72 h
[4] = test system: HT-29; test: Anti-austerity antiproliferative activity against human HT-29 cells after 72 hrs in presence of 10 % serum; assay type: cell-based; conditions: HT-29, 72 h

| Structure (SMILES) | IC50 [1] [µM] | IC50 [2] [µM] | IC50 [3] [µM] | IC50 [4] [µM] |
| --- | --- | --- | --- | --- |
| O=C(OC[C@@]1(O)C(=O)CC[C@H]2[C@@H]1[C@H]1CC[C@@H]2C(=O)[C@]1(O)COC(=O)c1ccccc1)c1ccccc1 | 27 | 86 | 81 | 39 |
| COc1ccc(C(=O)OC[C@@]2(O)C(=O)C=C[C@H]3[C@@H]2[C@H]2C=C[C@@H]3C(=O)[C@]2(O)COC(=O)c2ccc(OC)cc2)cc1 | 22 | 52 | 78 | 35 |
| O=C(OC[C@@]1(O)C(=O)C=C[C@H]2[C@@H]1[C@H]1C=C[C@@H]2C(=O)[C@]1(O)COC(=O)c1ccccc1)c1ccccc1 | > 500 | > 500 | 123 | 109 |
| O=C(OC[C@@]1(O)C(=O)C=C[C@H]2[C@@H]1[C@H]1C=C[C@@H]2C(=O)[C@]1(O)COC(=O)c1ccc(Cl)cc1)c1ccc(Cl)cc1 | 18 | 77 | 84 | 39 |
